The source of these data is patent US20230025510A1, “BIARYL ETHER-TYPE QUINAZOLINE DERIVATIVES” (DAIICHI SANKYO COMPANY, LIMITED, priority 2018, published 2023).

Where only a bound is given, the exact number is not on record here.

In general, GI50 refers to the concentration that inhibits growth by half. Low values mean greater sensitivity of the cells, high ones lower sensitivity of the cells.

Common to all, as to assay type: cell-based
One test concerns Ba/F3-Mock cells. Nature of the test: Cell proliferation suppression test (CellTiter-Glo, GI50), Ba/F3-Mock. The settings on record: Mus musculus, BaF3, 72 h, 5 ng/mL IL-3, 3 days, N=4. On the procedure: (§1) Cell proliferation suppression test Ba/F3-Mock, Ba/F3-EGFR WT, Ba/F3-EGFR ins. ASV, and Ba/F3-EGFR ins. SVD cell lines were cultured based on a culture medium of 10% FBS-containing RPMI 1640 supplemented with 1.5 ug/mL puromycin, and 5 ng/mL IL-3 and 100 ng/mL of EGF were further added to the culture solution for Ba/F3-Mock and Ba/F3-EGFR WT, respectively. The cells were cultured in a CO2 incubator set at 37° C., 5% CO2. Specimens prepared by dilution were seeded into 384-well tissue culture plates with Echo555 (Labcyte Inc.), and the cells were seeded thereto at 400 cells/well for Ba/F3-Mock, Ba/F3-EGFR WT, and Ba/F3-EGFR ins. SVD and at 200 cells/well for Ba/F3-EGFR ins. ASV (day 0), then they were cultured for an additional 3 days. On the day of the compound addition (day 0) and 3 days after the compound addition (day 3), ATP quantity was measured with CellTiter-Glo (registered trademark) 2.0 (Promega Corporation.), and used as an indicator of cell quantity (N=4). In the test, puromycin-free culture medium was used. Concentrations at which cell proliferation from day 0 to day 3 was inhibited by 50% (GIso) were calculated with EXCEL.

Another test relates to Ba/F3-EGFR WT cells. In words: Cell proliferation suppression test (CellTiter-Glo, GI50), Ba/F3-EGFR WT. Particulars: Mus musculus, 72 h, 100 ng/mL EGF, 3 days, N=4. On the procedure:
as §1
Background: In ATP-based viability assays light output follows the ATP content of the culture.

The test system of test [1] is Ba/F3-EGFR ins. ASV cells. In words: Cell proliferation suppression test (CellTiter-Glo, GI50), Ba/F3-EGFR ins. ASV. The settings on record: Mus musculus, 72 h, 3 days, N=4. On the procedure: as §1
For test [2], the system named is Ba/F3-EGFR ins. SVD cells. Nature of the test: Cell proliferation suppression test (CellTiter-Glo, GI50), Ba/F3-EGFR ins. SVD. The settings on record: Mus musculus, 72 h, 3 days, N=4. On the procedure:
as §1

As for `C=CC(=O)N1CCC(Oc2cc3c(Nc4ccc(Oc5nc(-c6cnc(C)c(Cl)c6)cs5)cc4F)ncnc3cc2OC)CC1` [Example 12, 1-(4-{[4-(4-{[4-(5-Chloro-6-methylpyridin-3-yl)-1,3-thiazol-2-yl]oxy}-2-fluoroanilino)-7-methoxyquinazolin-6-yl]oxy}piperidin-1-yl)prop-2-en-1-one], the concentration for 50% growth inhibition (GI50) is over 10000 nM in the test with Ba/F3-Mock cells, 646 nM in the test with Ba/F3-EGFR WT cells, 44.8 nM in test [1] and 29.8 nM in test [2].
The matching figures for `[2H]C([2H])([2H])Oc1cc2ncnc(Nc3ccc(Oc4ccn(C(=O)NC(C([2H])([2H])[2H])(C([2H])([2H])[2H])C([2H])([2H])[2H])n4)cc3F)c2cc1OC1CCN(C(=O)C=C)CC1` [Example 21, 3-{3-Fluoro-4-[(7-[(^2H3)methyloxy]-6-{[1-(prop-2-enoyl)piperidin-4-yl]oxy}quinazolin-4-yl)amino]phenoxy}-N-[2-(^2H3)methyl(^2H6)propan-2-yl]-1H-pyrazole-1-carboxamide]: 7990 nM, 129 nM, 12.1 nM and 7.3 nM.
Taken in the same sequence, the figures for `C=CC(=O)N1CCC(Oc2cc3c(Nc4ccc(Oc5ccn(-c6cnc(OC)nc6)n5)cc4F)ncnc3cc2OC)CC1` [Example 14, 1-(4-{[4-(2-Fluoro-4-{[1-(2-methoxypyrimidin-5-yl)-1H-pyrazol-3-yl]oxy}anilino)-7-methoxyquinazolin-6-yl]oxy}piperidin-1-yl)prop-2-en-1-one] were 5950 nM, 429 nM, 13.7 nM and 13.5 nM.
Taken in the same sequence, the figures for `C=CC(=O)N1CCC(Oc2cc3c(Nc4ccc(Oc5cccc(-c6nnc(C)o6)c5)cc4F)ncnc3cc2OC)CC1` [Example 17, 1-{4-[(4-{2-Fluoro-4-[3-(5-methyl-1,3,4-oxadiazol-2-yl)phenoxy]anilino}-7-methoxyquinazolin-6-yl)oxy]piperidin-1-yl}prop-2-en-1-one] were 8220 nM, 186 nM, 10.3 nM and 8 nM.
`C=CC(=O)N1CCC(Oc2cc3c(Nc4ccc(Oc5nc(-c6ccc(OC)nc6)cs5)cc4F)ncnc3cc2OC)CC1` [Example 35, 1-(4-{[4-(2-Fluoro-4-{[4-(6-methoxypyridin-3-yl)-1,3-thiazol-2-yl]oxy}anilino)-7-methoxyquinazolin-6-yl]oxy}piperidin-1-yl)prop-2-en-1-one]: the GI50 is over 10000 nM in the test on Ba/F3-Mock cells, 213 nM in the test on Ba/F3-EGFR WT cells, 14.8 nM in test [1] and 12.9 nM in test [2].
The matching figures for `C=CC(=O)N1CCC(Oc2cc3c(Nc4ccc(Oc5cccc(C(=O)NC(C)(C)C)c5)cc4F)ncnc3cc2OC)CC1` [Example 1, N-tert-Butyl-3-{3-fluoro-4-[(7-methoxy-6-{[1-(prop-2-enoyl)piperidin-4-yl]oxy}quinazolin-4-yl)amino]phenoxy}benzamide]: 7900 nM, 115 nM, 15.5 nM and 8.9 nM.
The matching figures for `CCOc1cc2ncnc(Nc3ccc(Oc4cccc(-c5nnc(C)o5)c4)cc3F)c2cc1NC(=O)/C=C/CN[C@H]1CCOC1` [Example 52, (2E)-N-(7-Ethoxy-4-{2-fluoro-4-[3-(5-methyl-1,3,4-oxadiazol-2-yl)phenoxy]anilino}quinazolin-6-yl)-4-[(3S)-tetrahydrofuran-3-ylamino]but-2-enamide]: 2840 nM, 245 nM, 11.9 nM and 19.8 nM.
Taken in the same sequence, the figures for `COc1cc2ncnc(Nc3ccc(Oc4nn(CC(=O)NC(C)(C)CF)cc4F)cc3Cl)c2cc1NC(=O)/C=C/CN(C)C` [Example 48, (2E)-N-(4-{2-Chloro-4-[(4-fluoro-1-{2-[(1-fluoro-2-methylpropan-2-yl)amino]-2-oxoethyl}-1H-pyrazol-3-yl)oxy]anilino}-7-methoxyquinazolin-6-yl)-4-(dimethylamino) but-2-enamide] were 3170 nM, 638 nM, 8.1 nM and 4.9 nM.
With `COc1cc2ncnc(Nc3ccc(Oc4nn(CC(=O)NC(C)(C)C)cc4F)cc3Cl)c2cc1NC(=O)/C=C/CN1CC[C@H](F)C1` [Example 57, (2E)-N-{4-[4-({1-[2-(tert-Butylamino)-2-oxoethyl]-4-fluoro-1H-pyrazol-3-yl}oxy)-2-chloroanilino]-7-methoxyquinazolin-6-yl}-4-[(3S)-3-fluoropyrrolidin-1-yl]but-2-enamide], the concentration for 50% growth inhibition (GI50) was 5090 nM in the test on Ba/F3-Mock cells, 369 nM in the test on Ba/F3-EGFR WT cells, 8.5 nM in test [1] and 4.1 nM in test [2].
`CCc1nnc(-c2cccc(Oc3ccc(Nc4ncnc5cc(OC)c(NC(=O)/C=C/CN(C)C)cc45)c(F)c3)c2)o1` [Example 41, (2E)-4-(Dimethylamino)-N-(4-{4-[3-(5-ethyl-1,3,4-oxadiazol-2-yl)phenoxy]-2-fluoroanilino)-7-methoxyquinazolin-6-yl)but-2-enamide]: the concentration for 50% growth inhibition (GI50) in the test on Ba/F3-Mock cells was determined as 841 nM; in the test with Ba/F3-EGFR WT cells it was 114 nM; in test [1], 8.2 nM; in test [2], 27 nM.
The matching figures for `C=CC(=O)N1CCC(Oc2cc3c(Nc4ccc(Oc5ccn(C(=O)NC(C)(C)C)n5)cc4F)ncnc3cc2OC)CC1` [Example 4, N-tert-Butyl-3-{3-fluoro-4-[(7-methoxy-6-{[1-(prop-2-enoyl)piperidin-4-yl]oxy}quinazolin-4-yl)amino]phenoxy}-1H-pyrazole-1-carboxamide]: 7610 nM, 78.3 nM, 7.4 nM and 5 nM.
The matching figures for `COc1cc2ncnc(Nc3ccc(Oc4nn(CC(=O)NC(C)(C)C)cc4F)cc3F)c2cc1NC(=O)/C=C/CN1CC(F)C1` [Example 59, (2E)-N-{4-[4-({1-[2-(tert-Butylamino)-2-oxoethyl]-4-fluoro-1H-pyrazol-3-yl}oxy)-2-fluoroanilino]-7-methoxyquinazolin-6-yl}-4-(3-fluoroazetidin-1-yl)but-2-enamide]: over 10000 nM, 468 nM, 11.9 nM and 7.4 nM.
Taken in the same sequence, the figures for `COc1cc2ncnc(Nc3ccc(Oc4cccc(-c5nnc(C)o5)c4)cc3F)c2cc1NC(=O)/C=C/CN(C)C` [Example 39, (2E)-4-(Dimethylamino)-N-(4-{2-fluoro-4-[3-(5-methyl-1,3,4-oxadiazol-2-yl)phenoxy]anilino}-7-methoxyquinazolin-6-yl)but-2-enamide] were 1150 nM, 161 nM, 12.2 nM and 58.7 nM.
As to `COc1cc2ncnc(Nc3ccc(Oc4nc(C(=O)NC(C)(C)C)cs4)cc3F)c2cc1NC(=O)/C=C/CN(C)C` [Example 47, N-tert-Butyl-2-{4-[(6-{[(2E)-4-(dimethylamino)but-2-enoyl]amino}-7-methoxyquinazolin-4-yl)amino]-3-fluorophenoxy}-1,3-thiazole-4-carboxamide], the GI50 in the test with Ba/F3-Mock cells was found to be 816 nM; in the test on Ba/F3-EGFR WT cells, 145 nM; in test [1], 16.4 nM; in test [2], 73.1 nM.
Consider `COc1cc2ncnc(Nc3ccc(Oc4cccc(-c5nnc(C(C)C)o5)c4)cc3F)c2cc1NC(=O)/C=C/CN(C)C` [Example 43, (2E)-4-(Dimethylamino)-N-[4-(2-fluoro-4-{3-[5-(propan-2-yl)-1,3,4-oxadiazol-2-yl]phenoxy}anilino)-7-methoxyquinazolin-6-yl]but-2-enamide], for which the GI50 came to 806 nM in the test on Ba/F3-Mock cells, 69.8 nM with Ba/F3-EGFR WT cells, 5.5 nM in test [1] and 14.1 nM in test [2].
With `COc1cc2ncnc(Nc3ccc(Oc4nc(-c5nnc(C6CC6)o5)cs4)cc3F)c2cc1NC(=O)/C=C/CN1CC[C@@H](F)C1` [Example 62, (2E)-N-[4-(4-{[4-(5-Cyclopropyl-1,3,4-oxadiazol-2-yl)-1,3-thiazol-2-yl]oxy}-2-fluoroanilino)-7-methoxyquinazolin-6-yl]-4-[(3R)-3-fluoropyrrolidin-1-yl]but-2-enamide], the concentration for 50% growth inhibition (GI50) was 1490 nM in the test with Ba/F3-Mock cells, 733 nM in the test on Ba/F3-EGFR WT cells, 43.9 nM in test [1] and 210 nM in test [2].
Taken in the same sequence, the figures for `C=CC(=O)N1CCC(Oc2cc3c(Nc4ccc(Oc5ccn(C(=O)NC6(C(F)(F)F)CC6)n5)cc4F)ncnc3cc2OC)CC1` [Example 22, 3-{3-Fluoro-4-[(7-methoxy-6-{[1-(prop-2-enoyl)piperidin-4-yl]oxy}quinazolin-4-yl)amino]phenoxy}-N-[1-(trifluoromethyl)cyclopropyl]-1H-pyrazole-1-carboxamide] were 8620 nM, 102 nM, 14.5 nM and 12.8 nM.
